Measured values as given in patent US9856273B2, “ETP derivatives” (priority 2012, dated 2018).

Legend:
p53 tumor suppressor = assay: Western blot, induction of p53; assay type: cell-based, human; conditions: A2058, DU145, A549 and SKOV3 cells (SKOV3 cells do not express p53 protein)
Method: (§1) Induction of p16, p53, p21waf1 and p27 (FIGS. 8 and 9): Western blot analyses were performed with specific antibodies. Briefly, human A2058 melanoma, DU145 prostate, A549 non-small lung and SKOV3 ovarian cancer cells were treated with ETP69. Whole-cell lysates (40 […]g) were resolved by SDS-PAGE. Primary specific antibodies to p53, p21^WAF1, p27(Kip1), p16 and Actin were diluted in PBS (pH 7.5) with 5% (w/v) nonfat milk and 0.1% (v/v) Tween-20 over night at 4° C. Horseradish peroxidase-conjugated secondary antibodies were incubated in PBS (pH 7.5) with 5% (w/v) nonfat milk and 0.1% (v/v) Tween-20 for 1 h at room temperature. Positive immuno-reactive proteins were detected using the ECL system (Pierce, Rockford, Ill.).

[1] = test system: p21WAF1 cyclin-dependent kinase inhibitor 1; assay: Western blot, induction of p21WAF1; assay type: cell-based, human; conditions: A2058, DU145, A549 and SKOV3 cells
Method: as §1

H3K9 trimethylation = assay: Western blot of histone H3 (trimethyl K9) in A2058 melanoma cells; assay type: cell-based, human
Method: as §1, with “Western” for “Induction of p16, p53, p21waf1 and p27 (FIGS. 8 and 9): Western”, “[…]g) or histone extracts (10 […]g)” for “[…]g)”, “histone H3” for “p53, p21^WAF1, p27(Kip1), p16”, “histone H3 (trimethyl K9) were incubated in PBS (pH 7.5) with 0.1% (v/v) Tween-20 and 5% (w/v) BSA with gentle agitation overnight at 4° C. Other specific antibodies” for “Actin”

[2] = test system: A2058 melanoma SQ xenografts; assay type: in vivo, mouse; conditions: A2058 xenograft, 20 mg/kg IP once daily for 13 days
Method: In Vivo Xenograft Procedures for Lung Cancer, Melanoma, and Ovarian Cancer (See FIGS. 15A, 15B, 16A, 16B, 17A, 17B, 18A and 18B): Human A2058 melanoma cells (3×10^6) were resuspended in serum-free RPMI1640 medium and subcutaneously injected into the flank of 5-6 weeks old Athymic female nude mouse (NCI). When palpable tumor sizes reached at approximately 100 mm^3, mice were divided into two groups (vehicle=5, treatment=5). Then, ETP69 was administered with intraperitoneal (IP) injection at 20 mg/kg with vehicle (10% DMSO+0.5% Teen 20+89.5% saline), once daily for 13 days. Tumor volumes were calculated by the formula 1/2a×b^2, where a is the long diameter, and b is the short diameter. Tumor volumes correlate with tumor weights. The statistical significance of group differences was analyzed using a Student's t-test with the two-tailed distribution. P values less than 0.05 were considered statistically significant.

For `CN1C(=O)[C@@]23C[C@](C)(C#N)[C@H](c4ccc5c(c4)OCO5)N2C(=O)[C@]1(C)SS3` (racemic) [ETP69, Rac-(3S,6S,7S,8aS)-6-(Benzo[d][1,3]dioxol-5-yl)-2,3,7-trimethyl-1,4-dioxohexahydro-6H-3,8a-epidithiopyrrolo[1,2-a]pyrazine-7-carbonitrile], the “induction of p53” value (p53 tumor suppressor) was “induces”, the “induction of p21WAF1” value [1] was “induces” and the “inhibition of H3K9 trimethylation” value (H3K9 trimethylation) was “inhibition”. The toxicity symptoms [2] was “no observable toxicity symptoms”, the tumor volume [2] was “decreased” and the tumor weight [2] was “decreased”.
